The source made the active and inactive calls. The rule behind the calls is not given here.
How the values were obtained:
[1] = system: A549; assay: Reduction in PDE5 protein expression in human A549 cells at 0.25 to 0.5 IC50 measured after 48 hrs by Western blot analysis; type: functional, cell-based
[2] = system: NCI-H661; assay: Potentiation of raloxifene-induced cytotoxicity against human NCI-H661 cells assessed as fold reduction in raloxifene IC50 at 1:2 ratio of raloxifene to compound measured after 48 hrs by MTT assay relative to raloxifene alone; type: functional
[3] = system: A549; assay: Inhibition of colony formation in human A549 cells assessed as reduction in size of colonies at 64 to 128 uM measured after 48 hrs by colony formation assay; type: functional, cell-based; conditions: dose 64-128 µM
[4] = system: A549; assay: Antiproliferative activity against human A549 cells by MTT assay; type: functional, cell-based; conditions: time 24-72 hrs, TDE = time-dependent effect
[5] = system: A549; assay: Induction of apoptosis in human A549 cells assessed as increase in apoptotic cells at 256 uM measured after 48 hrs by Annexin V-FITC/PI staining based flow cytometry relative to control; type: functional
[6] = system: A549; assay: Antiproliferative activity against human A549 cells measured after 72 hrs by MTT assay; type: functional, cell-based
[7] = system: NCI-H1299; assay: Antiproliferative activity against human NCI-H1299 cells measured after 72 hrs by MTT assay; type: functional, cell-based
[8] = system: NCI-H661; assay: Antiproliferative activity against human NCI-H661 cells measured after 72 hrs by MTT assay; type: functional, cell-based
[9] = system: A549; assay: Reduction in Bcl-2 gene expression in human A549 cells at 0.1 IC50 measured after 48 hrs by qRT-PCR analysis; type: functional, cell-based
[10] = system: NCI-H661; assay: Potentiation of cisplatin-induced cytotoxicity against human NCI-H661 cells assessed as combination index at 1:4 ratio of cisplatin to compound measured after 48 hrs by MTT assay; type: functional
[11] = system: NCI-H1299; assay: Antiproliferative activity against human NCI-H1299 cells measured after 48 hrs by MTT assay; type: functional, cell-based
[12] = system: NCI-H661; assay: Antiproliferative activity against human NCI-H661 cells measured after 24 hrs by MTT assay; type: functional, cell-based
[13] = system: NCI-H661; assay: Potentiation of cisplatin-induced cytotoxicity against human NCI-H661 cells assessed as fold reduction in cisplatin IC50 at 1:4 ratio of cisplatin to compound measured after 48 hrs by MTT assay relative to cisplatin alone; type: functional
[14] = system: A549; assay: Potentiation of cisplatin-induced cytotoxicity against human A549 cells assessed as combination index at 1:5 ratio of cisplatin to compound measured after 48 hrs by MTT assay; type: functional
[15] = system: NCI-H1299; assay: Potentiation of cisplatin-induced cytotoxicity against human NCI-H1299 cells assessed as fold reduction in cisplatin IC50 at 1:4 ratio of cisplatin to compound measured after 48 hrs by MTT assay relative to cisplatin alone; type: functional
[16] = system: NCI-H1299; assay: Antiproliferative activity against human NCI-H1299 cells by MTT assay; type: functional, cell-based; conditions: time 24-72 hrs, TDE = time-dependent effect
[17] = system: A549; assay: Potentiation of raloxifene-induced cytotoxicity against human A549 cells assessed as fold reduction in raloxifene IC50 at 1:3 ratio of raloxifene to compound measured after 48 hrs by MTT assay relative to raloxifene alone; type: functional
[18] = system: NCI-H661; assay: Antiproliferative activity against human NCI-H661 cells by MTT assay; type: functional, cell-based; conditions: time 24-72 hrs, TDE = time-dependent effect
[19] = system: NCI-H661; assay: Antiproliferative activity against human NCI-H661 cells measured after 48 hrs by MTT assay; type: functional, cell-based
[20] = system: NCI-H1299; assay: Antiproliferative activity against human NCI-H1299 cells measured after 24 hrs by MTT assay; type: functional, cell-based
[21] = system: A549; assay: Potentiation of cisplatin-induced cytotoxicity against human A549 cells assessed as fold reduction in cisplatin IC50 at 1:5 ratio of cisplatin to compound measured after 48 hrs by MTT assay relative to cisplatin alone; type: functional
[22] = system: A549; assay: Reduction in PDE5 gene expression in human A549 cells at 0.1 IC50 measured after 48 hrs by qRT-PCR analysis; type: functional, cell-based
[23] = system: A549; assay: Inhibition of colony formation in human A549 cells assessed as reduction in number of colonies at 64 to 128 uM measured after 48 hrs by colony formation assay; type: functional, cell-based; conditions: dose 64-128 µM
[24] = system: NCI-H1299; assay: Potentiation of raloxifene-induced cytotoxicity against human NCI-H1299 cells assessed as fold reduction in raloxifene IC50 at 1:2 ratio of raloxifene to compound measured after 48 hrs by MTT assay relative to raloxifene alone; type: functional
[25] = system: NCI-H1299; assay: Antimigratory activity against human NCI-H1299 cells assessed as reduction in wound closure measured after 24 hrs by wound healing assay; type: functional, cell-based
[26] = system: NCI-H1299; assay: Potentiation of cisplatin-induced cytotoxicity against human NCI-H1299 cells assessed as combination index at 1:4 ratio of cisplatin to compound measured after 48 hrs by MTT assay; type: functional
[27] = system: NCI-H661; assay: Potentiation of raloxifene-induced cytotoxicity against human NCI-H661 cells assessed as combination index at 1:2 ratio of raloxifene to compound measured after 48 hrs by MTT assay; type: functional
[28] = system: A549; assay: Cell cycle arrest in human A549 cells assessed as increase in cell population at G2 phase at 64 uM measured after 48 hrs by propidium iodide staining based flow cytometry; type: functional
[29] = system: A549; assay: Antiproliferative activity against human A549 cells measured after 24 hrs by MTT assay; type: functional, cell-based
[30] = system: NCI-H1299; assay: Potentiation of raloxifene-induced cytotoxicity against human NCI-H1299 cells assessed as combination index at 1:2 ratio of raloxifene to compound measured after 48 hrs by MTT assay; type: functional
[31] = system: A549; assay: Potentiation of raloxifene-induced cytotoxicity against human A549 cells assessed as combination index at 1:3 ratio of raloxifene to compound measured after 48 hrs by MTT assay; type: functional
[32] = system: A549; assay: Antiproliferative activity against human A549 cells measured after 48 hrs by MTT assay; type: functional, cell-based

**Q.** Which results are given for `CCCOc1ccc(S(=O)(=O)NCCC2CCCN2C)cc1-c1nc2c(CCC)nn(C)c2c(=O)[nH]1` (stereo unspecified) [UDENAFIL]?
**A.** Activity [1]: Dose-Dependent Effect; fold change (FC) [2]: 2.3; inhibition [3]: Active; Activity [4]: Tde; Activity [5]: 55.9%; Activity [6]: Dose-Dependent Effect; IC50 ([6]; A549, 72 h): 82.8 µM; Activity [7]: Dose-Dependent Effect; IC50 ([7]; NCI-H1299, 72 h): 70.5 µM; Activity [8]: Dose-Dependent Effect; IC50 ([8]; NCI-H661, 72 h): 98.8 µM; Activity [9]: Active; CI [10]: 0.83; Activity [11]: Dose-Dependent Effect; IC50 ([11]; NCI-H1299, 48 h): 86.3 µM; Activity [12]: Dose-Dependent Effect; IC50 ([12]; NCI-H661, 24 h): 177 µM; fold change (FC) [13]: 2.1; CI [14]: 0.95; fold change (FC) [15]: 2.4; Activity [16]: Tde; fold change (FC) [17]: 1.6; Activity [18]: Tde; Activity [19]: Dose-Dependent Effect; IC50 ([19]; NCI-H661, 48 h): 80.4 µM; Activity [20]: Dose-Dependent Effect; IC50 ([20]; NCI-H1299, 24 h): 76.1 µM; fold change (FC) [21]: 1.7; Activity [22]: Active; inhibition [23]: Active; fold change (FC) [24]: 2.4; Activity [25]: Dose-Dependent Effect; CI [26]: 0.82; CI [27]: 0.8; Activity [28]: Active; Activity [29]: Dose-Dependent Effect; IC50 ([29]; A549, 24 h): 150 µM; CI [30]: 0.88; CI [31]: 0.98; Activity [32]: Dose-Dependent Effect; IC50 ([32]; A549, 48 h): 128 µM

Reference: ChEMBL document CHEMBL5584328, “Integrating computational and experimental chemical biology revealed variable anticancer activities of phosphodiesterase isoenzyme 5 inhibitors (PDE5i) in lung cancer” (RSC Med Chem, 2024)
